Test results reported in US10487091B2, “Activators of autophagic flux and phospholipase D and clearance of protein aggregates including tau and treatment of proteinopathies” (THE TRUSTEES OF COLUMBIA UNIVERSITY IN THE CITY OF NEW YORK, priority 2015, dated 2019).
Where two headings read alike, the source gives them in different places.

What was measured:
[1] = tested on: Autophagy Markers; test: Autophagy markers (Cyto-ID assay) in HEK 293 cells; assay type: cell-based, Human
Protocol: The dye used in the kit prevents its accumulation within lysosomes, but enables labelling of vacuoles associated with the autophagy pathway using the LC3 biomarker.
(§1) The test compounds (along with CytoID™ dye and Hoechst stain) were added to the cells and incubated for 3 hours. Reference compounds were also used in each plate, Rapamycin was used for autophagy induction and chloroquine was used for lysosomal inhibition. After 3 hours test compound was aspirated off and kept. Cells were then washed and read using a fluorescence plate reader. Hoescht, Cyto-ID™ and mKate2 were measured using 3 distinct wavelengths on the plate reader. The Hoescht measurement allowed normalisation of results across wells. After reading, test compound was re-added and the cells are left for a further 21 hours. At the 24 hour time point cells were once again washed and plates read using the fluorescence plate reader.
2) Test samples were prepared in warm FluoroBrite™ DMEM and with 10% FBS and 1% NEAA (FB-DMEM). Rapamycin 200 nM (Enzo #BML-A275-0025) was used for autophagy induction and […] chloroquine was used for lysosomal inhibition (bafilomycin or similar compounds were not used as they give a false negative result in the assay). Dimethyl Sulfoxide 1:1000 (DMSO; Fisher #BP231-100) was used as control. Autophagosome marker Cyto ID™ (1:500; Enzo #ENZ-51031-k200) and Hoechst (1:200) was added to these test sample preparations before treating the cells.
7) At 24 hours post reaction all medium was aspirated and the plate was washed 3 times with warm FB-DMEM, and read again for Hoescht (Ex=355 nm Em=446 nm), CytoID™ (Ex=463 nm; Em=534 nm) and mKate2 (Ex=575 nm; Em=630 nm) in 80 μl of FB-DMEM.

[2] = tested on: Tau/aggregate; test: Tau/aggregate inhibition in HEK 293 cells expressing mKate2-tagged Tau; assay type: cell-based, Human; conditions: for inhibition at 1 µM: Homo sapiens, HEK293; for % Inhibition Tau/aggregate: @ 2 μM
Protocol: (§2) 1) HEK cells with tet-regulated expression of mKate2 tagged Tau were grown in DMEM medium (Dulbecco's Modified Eagle's Medium) containing 0.5 μg/mL doxycycline (Dox)(MP-Bio#198955), after 3-5 days Dox was removed by washing the cells twice with sterile phosphate buffered saline (PBS; Invitrogen#14190-144), cells were left in DMEM without Dox for 72 hours (to further clear remaining Dox in cells).
as §1
(§3) Proteostat™ assay was used to detect aggresomes via measurement of p62. Aggresomes are inclusion bodies that form when the ubiquitin-proteasome machinery is overwhelmed with aggregation-prone proteins. Typically, an aggresome forms in response to some cellular stress, such as hyperthermia, viral infection, or exposure to reactive oxygen species. Aggresomes may provide a cytoprotective function by sequestering the toxic, aggregated proteins and may also facilitate their ultimate elimination from cells by autophagy. Following the final plate read described in the Cyto-ID™ assay described above, Proteostat™ detection reagent was added to every well and the plate was incubated for 15 minutes. Following this incubation, the plate was read by fluorescence plate reader at the specified wavelength. After this plate read, the cells were fixed by incubating with warm paraformaldehyde for 8 minutes. The fixed cells were then read by plate reader as before.
Western blot assays were performed to determine protein changes in Tau and p62. Cells were cultured as above and incubated with test compounds for 24 h. Following test compound incubation, the test compound was aspirated off and cells were washed before harvesting. Cells were spun at a low speed and supernatant was aspirated to leave the cell pellet. The cell pellet was then homogenized in buffer, centrifuged at high speed, and the supernatant aspirated and further separated into total fraction and aggregate fraction allowing quantification of soluble and insoluble proteins. Western blots were run on the samples, gels transferred to nitrocellulose and incubated with antibodies for Tau and p62. After incubation with secondary antibodies for detection, the bands of protein were quantified by chemiluminescence.

[3] = Cytotoxicity LC50 (XTT assay for cell viability); assay type: cell-based; conditions: human, transfected HEK 293 cells that express mKate2-tagged Tau;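 note: cells carry doxycycline-repressible Tau, induced by withdrawing doxycycline for 72 h before compound exposure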
Protocol: The cells were grown in the presence of the antibiotic doxycycline. When the antibiotic is removed the cells produce Tau (which can be quantified), thus allowing the test compounds' effects on Tau's production to be compared. Doxycycline was removed for 72 hours prior to exposure to the test compounds to promote sufficient Tau production. Cells were subsequently plated into plates for each of the assays described below.

[4] = tested on: phospholipase D (PLD); test: PLD assay (conversion of phospholipids to phosphatidylethanols in presence of ethanol, LC/MS); assay type: cell-based, mice; design: key: NC—no change; conditions: PLD activation, fold; 24 hours incubation
Protocol: Cells were incubated with test compound for 24 hours. 25 minutes prior to harvest at 24 hours, 3% ethanol solution was added to the wells to catalyze cleavage of the phospholipid. Cells were then placed on ice, washed and harvested. The harvested cells were centrifuged and the supernatant was aspirated and the pellet kept. The pellet was resuspended and chloroform/methanol lipid extraction was performed. The sample was centrifuged and the organic layer was separated, dried under nitrogen and stored at −80° C. On the day of analysis, samples were resuspended and analysed by LC/MS. All phosphatidylethanol species (PEtOH32-40:0-6:16/18:0/1) were combined together and represented as total lipid content (all lipid species).
The assay was run in e18 primary cortical neurons from PLD1 or PLD2 KO mice cultured for 14 days. Alternatively, the assay can be run in the cells described above in the presence of excess PLD1 or PLD2 inhibitor to preclude that particular action from contributing to the effect of the drug.
4) On the day of experiment, cells were washed in warmed HBSS twice before media containing test compound (n=3 per compound per dose), inhibitor (355 nM ML298 or 50 nM VU0150669), or vehicle are added to the wells (1.5 mL in 6 well, 600 μL in 12 well). Plates were incubated for 24 hours at 37° C. with 5% CO2.
5) 25 minutes prior to harvest, a 165 μL of a 3% ethanol solution was added to each well.
PLD activation converts phospholipids to phosphatidylethanols in the presence of ethanol. […] FIPI is a non-competitive inhibitor of PLD activity and was used as a negative control.

[5] = tested on: aggregates (Proteostat); test: Proteostat protein aggregation assay EC50; assay type: cell-based; conditions: Homo sapiens; 50% reduction of Proteostat levels (fluorescent marker of aggregates)
Description: as §3
8) Detection solution was prepared by adding 10 μl Proteostat™ detection reagent (ENZ-51023-KP002) and 200 μL of 10× assay buffer into 1790 μL water and mixing well.
9) 20 μL was added per well (each well had 80 μl of Fluorobrite™ media with no FBS) and incubated in the dark for 15 min at room temperature.
10) Fluorescence for Proteostat™ (Ex=550 nm; Em=600 nm) was then read.

[6] = tested on: mKate2 tagged Tau; test: Tau-mKate2 fluorescence EC50; assay type: cell-based; conditions: Homo sapiens; 50% reduction of mKate2 fluorescence (tau tag)
Protocol: as §2
as §1, with “After 3 hours test compound was aspirated off and kept.” left out, “The Hoescht measurement allowed normalisation of results across wells.” left out
5) Treatment plate was then washed quickly 3 times with warm FB-DMEM (100 μL/well). […] At this point, the plate was ready for reading. See details in Reading Plate section. Hoescht was read at Excitation wavelength (Ex)=355 nm & Emission wavelength (Em)=446 nm. mKate2 was read at Ex=575 nm & Em=630 nm. Cyto-ID™ was read at Ex=463 nm & Em=534 nm. […]

| SMILES | % Increase Autophagy Markers [1] | inhibition at 1 µM [2] | CC50 ([3]; read-out: Cyto-toxixity LC50) | % Increase Autophagy Markers ([1]; @ 2 μM) | % Inhibition Tau/aggregate [2] | PLD [4] | EC50 [5] | CC50 ([3]; XTT assay, 200 = upper concentration limit tested, read-out: LC50 (the source's name)) | EC50 [6] |
| --- | --- | --- | --- | --- | --- | --- | --- | --- | --- |
| O=c1[nH]cnc2ccc(F)cc12 [WHYKD24] | 15% | 30% | > 100 µM | – | – | – | – | – | – |
| Cn1nnnc1Sc1ccnc2ccc(F)cc12 [WHYKD11] | – | – | > 100 µM | No Effect @ 2 μM | No Effect @ 2 μM | – | – | – | – |
| Fc1ccc2ncnc(SC3CCCC3)c2c1 [WHYKD15] | 40% | 65% | > 100 µM | – | – | 3.6 X | – | – | – |
| Cn1nnnc1Sc1ncnc2ccccc12 [WHYKD6] | – | – | > 100 µM | No Effect @ 2 μM | No Effect @ 2 μM | – | – | – | – |
| COC(=O)CC12CC3CC(C1)CC(Sc1ncnc4ccc(F)cc14)(C3)C2 [WHYKD18] | – | – | > 100 µM | No Effect @ 2 μM | No Effect @ 2 μM | – | – | – | – |
| Fc1ccc2ncnc(SC34CC5CC(CC(C5)C3)C4)c2c1 [WHYKD14] | – | – | > 100 µM | No Effect @ 2 μM | No Effect @ 2 μM | – | – | – | – |
| Ic1ccc2ncnc(SC3CCCC3)c2c1 [WHYKD30] | – | – | – | – | – | – | 2510 nM | > 200 µM | 1110 nM |
| Fc1ccc2ncnc(Cl)c2c1 [WHYKD9] | – | – | > 100 µM | No Effect @ 2 μM | No Effect @ 2 μM | – | – | – | – |
| Oc1ccc(CCNc2ncnc3ccsc23)cc1 [WHYKD23] | – | – | > 100 µM | No Effect @ 2 μM | No Effect @ 2 μM | – | – | – | – |
| Cn1nnnc1Sc1ncnc2ccc(F)cc12 [WHYKD5] | 20% | 35% | > 100 µM | – | – | 1.7X | – | – | – |
| CC1(Sc2ncnc3ccc(F)cc23)CCC2CC1C2(C)C (stereo not drawn) [WHYKD13] | – | – | > 100 µM | No Effect @ 2 μM | No Effect @ 2 μM | – | – | – | – |
| Fc1ccc2ncnc(SC3Cc4ccccc4C3)c2c1 [WHYKD20] | – | – | > 100 µM | No Effect @ 2 μM | No Effect @ 2 μM | – | – | – | – |
| Cn1nnnc1Sc1ccnc2ccccc12 [WHYKD10] | – | – | > 100 µM | No Effect @ 2 μM | No Effect @ 2 μM | – | – | – | – |
| Oc1ccc(CCNc2ncnc3scnc23)cc1 [WHYKD2] | – | – | > 100 µM | No Effect @ 2 μM | No Effect @ 2 μM | – | – | – | – |
| Cn1nnnc1Sc1ncnc2ccc(Br)cc12 [WHYKD3] | – | – | > 100 µM | No Effect @ 2 μM | No Effect @ 2 μM | NC | – | – | – |
| Oc1ccc(CCNc2ncnc3sccc23)cc1 [WHYKD22] | – | – | > 100 µM | No Effect @ 2 μM | No Effect @ 2 μM | – | – | – | – |
| Cn1nnnc1Sc1ncnc2scnc12 [WHYKD1] | – | – | > 100 µM | No Effect @ 2 μM | No Effect @ 2 μM | NC | – | – | – |
| Cn1nnnc1Sc1ncnc2ccc(-c3cccc4ccccc34)cc12 [WHYKD4] | – | – | > 100 µM | No Effect @ 2 μM | No Effect @ 2 μM | – | – | – | – |
| Oc1ccc(CCNc2ncnc3ncsc23)cc1 [WHYKD21] | – | – | > 100 µM | No Effect @ 2 μM | No Effect @ 2 μM | – | – | – | – |
| Fc1ccc2ncnc(SC3CC4CCC3C4)c2c1 (stereo not drawn) [WHYKD16] | – | – | > 100 µM | No Effect @ 2 μM | No Effect @ 2 μM | – | – | – | – |
| Fc1ccc2ncnc(SC3CCOCC3)c2c1 [WHYKD19] | 35% | 55% | > 100 µM | – | – | 3.5 X | – | – | – |
| Fc1ccc2ncnc(SC3CCCCC3)c2c1 [WHYKD12] | 40% | 60% | > 100 µM | – | – | 3.4 X | – | – | – |
| Cn1nnnc1Sc1ncnc2ccc(Cl)cc12 [WHYKD7] | – | – | > 100 µM | No Effect @ 2 μM | No Effect @ 2 μM | – | – | – | – |
